The source of these data is US12723063B2, “GIPR-agonist compounds” (Eli Lilly and Company, priority 2019, dated 2026).

Holding throughout (assay): cAMP functional assay (HTRF) in HEK293 cells in presence of 0.1% casein
Common to all, as to format: cell-based

The target of experiment [1] is T1, human GLP-1 receptor (GLP-1R) (Homo sapiens, UniProt P43220).
T1 construct: expressed in transfected cells; host or cells: HEK293
The settings on record: HEK293 cells expressing human GLP-1R, geometric mean, read-out: hGLP1R cAMP Rel EC50 nM (SEM, n).

Experiment [2] concerns the target T2, human glucose-dependent insulinotropic peptide receptor (GIPR) (Homo sapiens, UniProt P48546).
T2 construct: expressed in transfected cells; host or cells: HEK293
T2 sequence (P48546 22-466): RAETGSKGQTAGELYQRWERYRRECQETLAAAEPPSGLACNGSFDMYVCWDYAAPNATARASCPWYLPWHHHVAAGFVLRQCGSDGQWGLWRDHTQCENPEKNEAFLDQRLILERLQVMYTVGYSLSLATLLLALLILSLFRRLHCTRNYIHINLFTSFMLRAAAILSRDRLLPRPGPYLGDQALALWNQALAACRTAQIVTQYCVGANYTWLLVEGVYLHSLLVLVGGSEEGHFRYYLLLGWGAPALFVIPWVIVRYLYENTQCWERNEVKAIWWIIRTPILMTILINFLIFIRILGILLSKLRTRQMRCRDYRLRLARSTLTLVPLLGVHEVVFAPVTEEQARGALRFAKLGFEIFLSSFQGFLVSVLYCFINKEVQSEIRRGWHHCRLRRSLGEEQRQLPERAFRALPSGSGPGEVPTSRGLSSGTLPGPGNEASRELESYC
Conditions: HEK293 cells expressing human GIPR, geometric mean, read-out: hGIPR cAMP Rel EC50 nM (SEM, n).

The target in experiment [3] is T3, human glucagon receptor (GcgR) (Homo sapiens, UniProt P47871).
T3 construct: expressed in transfected cells; host or cells: HEK293
Conditions: HEK293 cells expressing human GcgR, geometric mean, read-out: hGcgR cAMP Rel EC50 nM (SEM, n).

SMILES strings stand for the structures. *1 amine or outer side, *2 acyl side, *3 side chain or, on linkers, in order; H or OH if unused. Where a SMILES comes first, the peptide text is derived from it. Side-chain parts run from the residue outwards. [ ]: non-standard residue; d: D form. The star is where a group is joined. C20 diacid = O=C(O)CCCCCCCCCCCCCCCCCCC(=O)*; C18 diacid = O=C(O)CCCCCCCCCCCCCCCCC(=O)*; αMePhe(2-F) = C[C@](N)(Cc1ccccc1F)C(=O)O; γGlu = O=C(O)[C@H](CCC(=O)[*:2])N[*:1]; αMeY = C[C@](N)(Cc1ccc(O)cc1)C(=O)O; 4Pal = N[C@@H](Cc1ccncc1)C(=O)O; αMeL = CC(C)C[C@](C)(N)C(=O)O; AEEA = NCCOCCOCC(=O)O; Aib = CC(C)(N)C(=O)O Where only a bound is given, the exact number is not on record here.

T3 sequence (P47871 26-477): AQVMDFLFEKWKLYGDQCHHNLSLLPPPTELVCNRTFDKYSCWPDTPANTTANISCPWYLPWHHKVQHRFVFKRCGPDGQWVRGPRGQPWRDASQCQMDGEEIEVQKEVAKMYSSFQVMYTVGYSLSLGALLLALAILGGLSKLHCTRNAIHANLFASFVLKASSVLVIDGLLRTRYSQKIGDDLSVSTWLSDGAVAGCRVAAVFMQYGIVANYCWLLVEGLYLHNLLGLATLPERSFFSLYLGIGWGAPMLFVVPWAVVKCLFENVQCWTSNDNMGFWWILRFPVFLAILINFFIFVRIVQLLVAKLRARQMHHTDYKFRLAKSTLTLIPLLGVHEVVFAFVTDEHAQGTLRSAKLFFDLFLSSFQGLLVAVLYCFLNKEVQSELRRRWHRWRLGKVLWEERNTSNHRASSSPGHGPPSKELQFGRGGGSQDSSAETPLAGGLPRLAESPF
T1 sequence (P43220 24-463): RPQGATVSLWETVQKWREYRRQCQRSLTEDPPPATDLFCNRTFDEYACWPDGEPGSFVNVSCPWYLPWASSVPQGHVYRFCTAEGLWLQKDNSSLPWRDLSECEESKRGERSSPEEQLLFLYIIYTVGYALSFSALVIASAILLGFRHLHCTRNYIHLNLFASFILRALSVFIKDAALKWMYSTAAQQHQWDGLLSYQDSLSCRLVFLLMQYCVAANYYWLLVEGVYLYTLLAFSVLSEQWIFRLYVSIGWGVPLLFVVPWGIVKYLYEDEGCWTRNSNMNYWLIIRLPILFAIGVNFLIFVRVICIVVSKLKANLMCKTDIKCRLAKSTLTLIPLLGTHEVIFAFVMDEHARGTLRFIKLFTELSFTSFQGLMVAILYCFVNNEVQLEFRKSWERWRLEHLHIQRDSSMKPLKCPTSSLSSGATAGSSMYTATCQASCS

`CC[C@H](C)[C@H](NC(=O)[C@H](CC(C)C)NC(=O)[C@@H](NC(=O)CNC(=O)[C@H](CCC(=O)O)NC(=O)C(C)(C)NC(=O)[C@@H](N)Cc1ccc(O)cc1)[C@@H](C)O)C(=O)N[C@@H](CO)C(=O)N[C@@H](CC(=O)O)C(=O)N[C@@H](Cc1ccc(O)cc1)C(=O)N[C@@H](CO)C(=O)N[C@H](C(=O)N[C@@](C)(CC(C)C)C(=O)N[C@@H](CC(C)C)C(=O)N[C@@H](CC(=O)O)C(=O)N[C@@H](CCCCN)C(=O)N[C@@H](CCCCNC(=O)COCCOCCNC(=O)COCCOCCNC(=O)CC[C@H](NC(=O)CCCCCCCCCCCCCCCCCCC(=O)O)C(=O)O)C(=O)N[C@@H](Cc1c[nH]cn1)C(=O)N[C@@H](CCC(N)=O)C(=O)NC(C)(C)C(=O)N[C@@H](CC(=O)O)C(=O)N[C@@H](Cc1ccccc1)C(=O)N[C@H](C(=O)N[C@@H](CCC(=O)O)C(=O)N[C@@H](Cc1ccncc1)C(=O)N[C@@H](CC(C)C)C(=O)N[C@@H](CC(C)C)C(=O)N[C@@H](CCC(=O)O)C(=O)N[C@@H](C)C(=O)NCC(=O)N1CCC[C@H]1C(=O)N[C@@H](CO)C(=O)N[C@@H](CO)C(=O)NCC(=O)N[C@@H](C)C(=O)N1CCC[C@H]1C(=O)N1CCC[C@H]1C(=O)N1CCC[C@H]1C(=O)N[C@@H](CO)C(N)=O)C(C)C)[C@@H](C)CC` [Example 89] (H-Y[Aib]EGTLISDYSI[αMeL]LDKK([AEEA-AEEA-γGlu-C20 diacid])HQ[Aib]DFVE[4Pal]LLEAGPSSGAPPPS-NH2): the results for the EC50 in experiment [1], in experiment [2] and in experiment [3] were more than 5000 nM, 0.00687 nM and more than 5000 nM, respectively.
Take `CC[C@H](C)[C@H](NC(=O)[C@H](Cc1ccccc1)NC(=O)[C@@H](NC(=O)CNC(=O)[C@H](CCC(=O)O)NC(=O)C(C)(C)NC(=O)[C@@H](N)Cc1ccc(O)cc1)[C@@H](C)O)C(=O)N[C@@H](CO)C(=O)N[C@@H](CC(=O)O)C(=O)N[C@@H](Cc1ccc(O)cc1)C(=O)N[C@@H](CO)C(=O)N[C@H](C(=O)N[C@@](C)(CC(C)C)C(=O)N[C@@H](CC(C)C)C(=O)N[C@@H](CC(=O)O)C(=O)N[C@@H](CCCCN)C(=O)N[C@@H](CCCCNC(=O)COCCOCCNC(=O)COCCOCCNC(=O)CC[C@H](NC(=O)CCCCCCCCCCCCCCCCCCC(=O)O)C(=O)O)C(=O)N[C@@H](Cc1c[nH]cn1)C(=O)N[C@@H](CCC(N)=O)C(=O)NC(C)(C)C(=O)N[C@@H](CC(=O)O)C(=O)N[C@@H](Cc1ccccc1)C(=O)N[C@H](C(=O)N[C@@H](CCC(=O)O)C(=O)N[C@@](C)(Cc1ccc(O)cc1)C(=O)N[C@@H](CC(C)C)C(=O)N[C@@H](CC(C)C)C(=O)N[C@@H](CCC(=O)O)C(=O)N[C@@H](C)C(=O)NCC(=O)N1CCC[C@H]1C(=O)N[C@@H](CO)C(=O)N[C@@H](CO)C(=O)NCC(=O)N[C@@H](C)C(=O)N1CCC[C@H]1C(=O)N1CCC[C@H]1C(=O)N1CCC[C@H]1C(=O)N[C@@H](CO)C(N)=O)C(C)C)[C@@H](C)CC` [Example 90] (H-Y[Aib]EGTFISDYSI[αMeL]LDKK([AEEA-AEEA-γGlu-C20 diacid])HQ[Aib]DFVE[αMeY]LLEAGPSSGAPPPS-NH2): the EC50 in experiment [1] was more than 5000 nM; in experiment [2], 0.0272 nM; in experiment [3], more than 5000 nM.
In the case of `CC[C@H](C)[C@H](NC(=O)[C@H](Cc1ccccc1)NC(=O)[C@@H](NC(=O)CNC(=O)[C@H](CCC(=O)O)NC(=O)C(C)(C)NC(=O)[C@@H](N)Cc1ccc(O)cc1)[C@@H](C)O)C(=O)N[C@@H](CO)C(=O)N[C@@H](CC(=O)O)C(=O)N[C@@H](Cc1ccc(O)cc1)C(=O)N[C@@H](CO)C(=O)N[C@H](C(=O)N[C@@](C)(CC(C)C)C(=O)N[C@@H](CC(C)C)C(=O)N[C@@H](CC(=O)O)C(=O)N[C@@H](CCCCN)C(=O)N[C@@H](CCCCNC(=O)COCCOCCNC(=O)COCCOCCNC(=O)CC[C@H](NC(=O)CCCCCCCCCCCCCCCCCCC(=O)O)C(=O)O)C(=O)N[C@@H](Cc1c[nH]cn1)C(=O)N[C@@H](CCC(N)=O)C(=O)NC(C)(C)C(=O)N[C@@H](CC(=O)O)C(=O)N[C@@H](Cc1ccccc1)C(=O)N[C@H](C(=O)N[C@@H](CCC(=O)O)C(=O)N[C@@](C)(Cc1ccc(O)cc1)C(=O)N[C@@H](CC(C)C)C(=O)N[C@@H](CC(C)C)C(=O)N[C@@H](CCC(=O)O)C(=O)NCC(=O)NCC(=O)N1CCC[C@H]1C(=O)N[C@@H](CO)C(=O)N[C@@H](CO)C(=O)NCC(=O)N[C@@H](C)C(=O)N1CCC[C@H]1C(=O)N1CCC[C@H]1C(=O)N1CCC[C@H]1C(=O)N[C@@H](CO)C(N)=O)C(C)C)[C@@H](C)CC` [Example 91] (H-Y[Aib]EGTFISDYSI[αMeL]LDKK([AEEA-AEEA-γGlu-C20 diacid])HQ[Aib]DFVE[αMeY]LLEGGPSSGAPPPS-NH2), the EC50 in experiment [1] came to 530 nM; in experiment [2] it was 0.0321 nM; in experiment [3] it was 289 nM.
On to `CC[C@H](C)[C@H](NC(=O)[C@H](CCCCN)NC(=O)[C@H](CC(=O)O)NC(=O)[C@H](CC(C)C)NC(=O)[C@](C)(CC(C)C)NC(=O)[C@@H](NC(=O)[C@H](CO)NC(=O)[C@H](Cc1ccc(O)cc1)NC(=O)[C@H](CC(=O)O)NC(=O)[C@H](CO)NC(=O)[C@@H](NC(=O)[C@H](Cc1ccccc1)NC(=O)[C@@H](NC(=O)CNC(=O)[C@H](CCC(=O)O)NC(=O)C(C)(C)NC(=O)[C@@H](N)Cc1ccc(O)cc1)[C@@H](C)O)[C@@H](C)CC)[C@@H](C)CC)C(=O)N[C@@H](Cc1c[nH]cn1)C(=O)N[C@@H](CCC(N)=O)C(=O)NC(C)(C)C(=O)N[C@@H](CC(=O)O)C(=O)N[C@@H](Cc1ccccc1)C(=O)N[C@H](C(=O)N[C@@H](CCC(=O)O)C(=O)N[C@@H](Cc1ccc(O)cc1)C(=O)N[C@@H](CCCCNC(=O)COCCOCCNC(=O)COCCOCCNC(=O)CC[C@H](NC(=O)CCCCCCCCCCCCCCCCCCC(=O)O)C(=O)O)C(=O)N[C@@H](CC(C)C)C(=O)N[C@@H](CCC(=O)O)C(=O)N[C@@H](CCC(N)=O)C(=O)NCC(=O)N1CCC[C@H]1C(=O)N[C@@H](CO)C(=O)N[C@@H](CO)C(=O)NCC(=O)N[C@@H](C)C(=O)N1CCC[C@H]1C(=O)N1CCC[C@H]1C(=O)N1CCC[C@H]1C(=O)N[C@@H](CO)C(N)=O)C(C)C` [Example 92] (H-Y[Aib]EGTFISDYSI[αMeL]LDKIHQ[Aib]DFVEYK([AEEA-AEEA-γGlu-C20 diacid])LEQGPSSGAPPPS-NH2), for which the EC50 in experiment [1] is more than 5000 nM; in experiment [2] it was 0.0191 nM; in experiment [3], more than 5000 nM.
For the molecule `CC[C@H](C)[C@H](NC(=O)[C@H](CCCCN)NC(=O)[C@H](CC(=O)O)NC(=O)[C@H](CC(C)C)NC(=O)[C@H](CC(C)C)NC(=O)[C@@H](NC(=O)[C@H](CO)NC(=O)[C@H](Cc1ccc(O)cc1)NC(=O)[C@H](CC(=O)O)NC(=O)[C@H](CO)NC(=O)[C@@H](NC(=O)[C@H](Cc1ccccc1)NC(=O)[C@@H](NC(=O)CNC(=O)[C@H](CCC(=O)O)NC(=O)[C@@H](C)NC(=O)[C@@H](N)Cc1ccc(O)cc1)[C@@H](C)O)[C@@H](C)CC)[C@@H](C)CC)C(=O)N[C@@H](C)C(=O)N[C@@H](CCC(N)=O)C(=O)NC(C)(C)C(=O)N[C@@H](CC(=O)O)C(=O)N[C@@H](Cc1ccccc1)C(=O)N[C@H](C(=O)N[C@@H](CC(N)=O)C(=O)N[C@@H](Cc1c[nH]c2ccccc12)C(=O)N[C@@H](CCCCNC(=O)COCCOCCNC(=O)COCCOCCNC(=O)CC[C@H](NC(=O)CCCCCCCCCCCCCCCCC(=O)O)C(=O)O)C(=O)N[C@@H](CC(C)C)C(=O)N[C@@H](C)C(=O)N[C@@H](CCC(N)=O)C(=O)NCC(=O)N1CCC[C@H]1C(=O)N[C@@H](CO)C(=O)N[C@@H](CO)C(=O)NCC(=O)N[C@@H](C)C(=O)N1CCC[C@H]1C(=O)N1CCC[C@H]1C(=O)N1CCC[C@H]1C(=O)N[C@@H](CO)C(N)=O)C(C)C` [Example 93] (H-Y[dA]EGTFISDYSILLDKIAQ[Aib]DFVNWK([AEEA-AEEA-γGlu-C18 diacid])LAQGPSSGAPPPS-NH2), the EC50 was 884 nM in experiment [1], 0.00482 nM in experiment [2] and more than 5000 nM in experiment [3].
Regarding `CC[C@H](C)[C@H](NC(=O)[C@H](CO)NC(=O)[C@H](Cc1ccc(O)cc1)NC(=O)[C@H](CC(=O)O)NC(=O)[C@H](CO)NC(=O)[C@@H](NC(=O)[C@](C)(Cc1ccccc1F)NC(=O)[C@@H](NC(=O)CNC(=O)[C@H](CCC(=O)O)NC(=O)C(C)(C)NC(=O)[C@@H](N)Cc1ccc(O)cc1)[C@@H](C)O)[C@@H](C)CC)C(=O)N[C@@H](C)C(=O)N[C@@H](CC(C)C)C(=O)N[C@@H](CC(=O)O)C(=O)N[C@@H](CCCCN)C(=O)N[C@H](C(=O)N[C@@H](Cc1c[nH]cn1)C(=O)N[C@@H](CCC(N)=O)C(=O)NC(C)(C)C(=O)N[C@@H](CCC(=O)O)C(=O)N[C@@H](Cc1ccccc1)C(=O)N[C@H](C(=O)N[C@@H](CC(N)=O)C(=O)N[C@@H](Cc1ccc(O)cc1)C(=O)N[C@@H](CCCCNC(=O)COCCOCCNC(=O)COCCOCCNC(=O)CC[C@H](NC(=O)CCCCCCCCCCCCCCCCC(=O)O)C(=O)O)C(=O)N[C@@H](CC(C)C)C(=O)N[C@@H](C)C(=O)NCC(=O)NCC(=O)N1CCC[C@H]1C(=O)N[C@@H](CO)C(=O)N[C@@H](CO)C(=O)NCC(=O)N[C@@H](C)C(=O)N1CCC[C@H]1C(=O)N1CCC[C@H]1C(=O)N1CCC[C@H]1C(=O)N[C@@H](CO)C(N)=O)C(C)C)[C@@H](C)CC` [Example 94] (H-Y[Aib]EGT[αMePhe(2-F)]ISDYSIALDKIHQ[Aib]EFVNYK([AEEA-AEEA-γGlu-C18 diacid])LAGGPSSGAPPPS-NH2), the EC50 in experiment [1] was 1090 nM; in experiment [2] it was 0.00436 nM; in experiment [3] it was more than 5000 nM.

By EC50 is commonly meant the concentration needed to bring the measured effect to its halfway point.
